Converted amounts (≈) assume the structure as drawn. Structures can show the parent of a compound that is named as a salt. Where two headings read alike, the source gives them in different places.
Assays:
[1] = test system: Enterobacter areogenes; experiment: Minimum inhibitory concentration (MIC); format: cell-based; conditions: Gram-negative
From the text: (§1) The antibacterial effects of compounds of the invention have been assessed by determination of the minimum inhibitory concentration (M.I.C.) value against a variety of Gram-negative and -positive bacteria. The microbial susceptibility data for four compounds, together with those for the antibacterial dipeptide beta-Cl-LAla-beta-Cl-LAla, are given in Table I.
(§2) in uM to facilitate a meaningful comparison of the approximate MICs among
(§3) the tested compounds; an appreciation of the MIC values in ug/mL can be
(§4) obtained by multiplying each value (μM) by 0.55

[2] = test system: Enterobacter cloacae; experiment: Minimum inhibitory concentration (MIC); format: cell-based; conditions: read-out: Minimum Inhibitory Concentration
From the text: as §1, §2, §3, §4

[3] = test system: Escherichia coli CR; experiment: Minimum inhibitory concentration (MIC); format: cell-based; conditions: read-out: Minimum Inhibitory Concentration
From the text: as §1, §2, §3, §4

[4] = test system: Escherichia coli DB4548; experiment: Minimum inhibitory concentration (MIC); format: cell-based
From the text: as §1, §2, §3, §4

[5] = test system: Escherichia coli JSR-O; experiment: Minimum inhibitory concentration (MIC); format: cell-based; conditions: read-out: Minimum Inhibitory Concentration
From the text: as §1, §2, §3, §4

[6] = test system: Hemophilus influenzae 236; experiment: Minimum inhibitory concentration (MIC); format: cell-based; conditions: Haemophilus influenzae
From the text: as §1, §2, §3, §4

[7] = test system: Hemophilus influenzae 238; experiment: Minimum inhibitory concentration (MIC); format: cell-based; conditions: Haemophilus influenzae
From the text: as §1, §2, §3, §4

[8] = test system: Hemophilus influenzae 487; experiment: Minimum inhibitory concentration (MIC); format: cell-based; conditions: Haemophilus influenzae, possesses a betalactamase
From the text: as §1, §2, §3, §4

[9] = test system: Klebsiella pneumoniae; experiment: Minimum inhibitory concentration (MIC); format: cell-based; conditions: Gram-negative
From the text: as §1, §2, §3, §4

[10] = test system: Morganella morganii; experiment: Minimum inhibitory concentration (MIC); format: cell-based; conditions: Gram-negative
From the text: as §1, §2, §3, §4

[11] = test system: Psuedomonas aeruginosa; experiment: Minimum inhibitory concentration (MIC); format: cell-based; conditions: Gram-negative
From the text: as §1, §2, §3, §4

[12] = test system: Salmonella typhimurium LT 2; experiment: Minimum inhibitory concentration (MIC); format: cell-based; conditions: Salmonella enterica, Gram-negative
From the text: as §1, §2, §3, §4

[13] = test system: Salmonella typhimurium; experiment: Minimum inhibitory concentration (MIC); format: cell-based; conditions: Salmonella enterica, Gram-negative
From the text: as §1, §2, §3, §4

[14] = test system: Serratia marcescens; experiment: Minimum inhibitory concentration (MIC); format: cell-based; conditions: Gram-negative
From the text: as §1, §2, §3, §4

[15] = test system: Shigella flexneri; experiment: Minimum inhibitory concentration (MIC); format: cell-based; conditions: Gram-negative
From the text: as §1, §2, §3, §4

[16] = test system: Staphylococcus aureus H-2690-8^R; experiment: Minimum inhibitory concentration (MIC); format: cell-based; conditions: possesses a betalactamase
From the text: as §1, §2, §3, §4

[17] = test system: Staphylococcus aureus PSL-13 Pen^R; experiment: Minimum inhibitory concentration (MIC); format: cell-based; conditions: possesses a betalactamase
From the text: as §1, §2, §3, §4

[18] = test system: Staphylococcus aureus PSL-14 Pen^R; experiment: Minimum inhibitory concentration (MIC); format: cell-based; conditions: possesses a betalactamase
From the text: as §1, §2, §3, §4

[19] = test system: Staphylococcus aureus PSL-15 Pen^R; experiment: Minimum inhibitory concentration (MIC); format: cell-based; conditions: possesses a betalactamase
From the text: as §1, §2, §3, §4

[20] = test system: Staphylococcus aureus PSL-16 Pen^R; experiment: Minimum inhibitory concentration (MIC); format: cell-based; conditions: possesses a betalactamase
From the text: as §1, §2, §3, §4

[21] = test system: Staphylococcus aureus T-4624-8 Pen^R; experiment: Minimum inhibitory concentration (MIC); format: cell-based; conditions: possesses a betalactamase
From the text: as §1, §2, §3, §4

[22] = test system: Streptococcus agalactiae; experiment: Minimum inhibitory concentration (MIC); format: cell-based; conditions: Gram positive
From the text: as §1, §2, §3, §4

[23] = test system: Streptococcus faecalis; experiment: Minimum inhibitory concentration (MIC); format: cell-based; conditions: Enterococcus faecalis, read-out: Minimum Inhibitory Concentration
From the text: as §1, §2, §3, §4

[24] = test system: Escherichia coli JSR-O Cl-Pep^R; experiment: Minimum inhibitory concentration (MIC); format: cell-based; conditions: Escherichia coli, read-out: Minimum Inhibitory Concentration
From the text: as §1, §2, §3, §4
^(g) This ia an E. coli JSRO strain selected for resistance to the
A comparison of the data for E. coli strains JSR-O and JSR-O Cl-Pep^R is of special interest. E. coli Cl-Pep^R is an E. coli JSR-O mutant which was selected for resistance to the dipeptide (f). […] Note that the MIC values for (d) and (e) against E. coli Cl-Pep^R (100 and 50 μM, respectively) are quite similar.

[25] = test system: Escherichia coli JSR-O pBR322; experiment: Minimum inhibitory concentration (MIC); format: cell-based; conditions: read-out: Minimum Inhibitory Concentration
From the text: as §1, §2, §3, §4
^(i) Contains the plasmid gene encoding the TEM betalactamase.

[26] = test system: Corynebacterium JKM-4754; experiment: Minimum inhibitory concentration (MIC); format: cell-based
From the text: as §1, §2, §3, §4
(§5) ^(j) Resistant to cephalothin (MIC >200 uM);

[27] = test system: Corynebacterium JKR-2285; experiment: Minimum inhibitory concentration (MIC); format: cell-based
From the text: as §1, §2, §3, §4, §5

[28] = test system: Escherichia coli Ceph^R; experiment: Minimum inhibitory concentration (MIC); format: cell-based; conditions: Escherichia coli, read-out: Minimum Inhibitory Concentration
From the text: as §1, §2, §3, §4, §5

[29] = test system: Staphylococcus epidermidis (P^R M^R); experiment: Minimum inhibitory concentration (MIC); format: cell-based; conditions: no strain number
From the text: as §1, §2, §3, §4
(§6) ^(k) P and M refer to penicillin and methicillin, respectively.

[30] = test system: Staphylococcus epidermidis 1239(P^R M^R); experiment: Minimum inhibitory concentration (MIC); format: cell-based
From the text: as §1, §2, §3, §4, §6

[31] = test system: Staphylococcus epidermidis MO1554(P^S M^S); experiment: Minimum inhibitory concentration (MIC); format: cell-based; conditions: Staphylococcus epidermidis MO1554 (penicillin- and methicillin-sensitive, P^S M^S)
From the text: as §1, §2, §3, §4, §6

[32] = test system: Gram-negative and -positive bacteria; experiment: Antibacterial activity, general trends of the MIC panel of Table I; format: cell-based; conditions: for sensitivity observed: H. influenzae 487, all of the S. aureus strains
From the text: as §1

[33] = molecular target: E. coli TEM beta-lactamase (Escherichia coli, UniProt P62593); experiment: Kinetics of enzymatic turnover by E. coli TEM beta-lactamase; format: biochemical; conditions: for binding to the lactamase (KM approximating KS): effect of the C10-dipeptidyl substituent
E. coli TEM beta-lactamase, sequence (P62593 24-286 limits assumed): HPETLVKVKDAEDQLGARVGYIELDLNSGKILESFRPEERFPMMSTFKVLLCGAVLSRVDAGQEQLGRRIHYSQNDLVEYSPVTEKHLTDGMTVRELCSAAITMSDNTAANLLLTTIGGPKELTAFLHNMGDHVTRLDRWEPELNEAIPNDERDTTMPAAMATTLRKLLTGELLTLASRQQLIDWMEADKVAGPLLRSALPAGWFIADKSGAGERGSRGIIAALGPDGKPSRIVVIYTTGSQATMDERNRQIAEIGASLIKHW
Experimental: Escherichi coli TEM beta-lactamase was purchased from Applied Microbiology and Research, Porton Down, U.K. L-Alanyl-L-alanine was purchase from Sigma; N-BOC-LAla-LAla and N-BOC-beta-Cl-LAla-beta-Cl-LAla were prepared as described previously. Cheung et al supra. All other reagents were of the best grade commercially available.
Kinetic Constants for the Reactions of E. coli TEM beta-Lactamase with Cephalothin and the Cephalosporin Peptide Esters 7 and 17.

[34] = JKM4754, Corynebacterium JKM-4754, resistant to cephalothin, read-out: Minimum Inhibitory Concentration
[35] = JKR2285, Corynebacterium JKR-2285, resistant to cephalothin, read-out: Minimum Inhibitory Concentration
[36] = E. cloacae, all of the susceptible E. coli strains

Compound `C[C@H](N)C(=O)N[C@@H](C)C(=O)OCC1=C(C(=O)O)N2C(=O)[C@@H](NC(=O)Cc3cccs3)[C@H]2SC1` [(d), Sodium 7-beta-(2-thienylacetamido)-3-(L-alanyl-L-alanyloxymethyl)-3-cephem-4-carboxylate, toluenesulfonic acid salt] has an MIC [1] greater than 200 µM, an MIC ([2]; Gram-negative) of 200 µM and an MIC ([3]; Escherichia coli CR) of 200 µM. For the same compound, the MIC [4] was 50 µM, the MIC ([5]; Escherichia coli JSR-O, parental strain) was 200 µM and the MIC [6] was 50 µM. The MIC [7] was no more than 0.78 µM, the MIC [8] was 12.5 µM and the MIC [9] was greater than 200 µM. It also gave an MIC [10] of 100 µM, an MIC [11] greater than 200 µM and an MIC [12] of 25 µM. It also gave an MIC [13] of 100 µM, an MIC [14] greater than 200 µM and an MIC [15] of 100 µM. The MIC [16] was 25 µM, the MIC [17] was greater than 200 µM and the MIC [18] was greater than 200 µM. For the same compound, the MIC [19] was greater than 200 µM, the MIC [20] was 200 µM and the MIC [21] was 25 µM. The MIC [22] was no more than 0.78 µM, the MIC ([23]; Streptococcus faecalis, Gram positive) was 50 µM and the MIC [24] was 100 µM. The MIC [25] was greater than 200 µM, the MIC [26, 34] was greater than 200 µM and the MIC [27, 35] was greater than 200 µM. It also gave an MIC [28] greater than 200 µM, an MIC [29] of no more than 0.78 µM and an MIC [30] of no more than 0.78 µM. The MIC [31] was no more than 0.78 µM, the sensitivity observed [32, 36] was “no activity was seen” and the “Vmax compared with cephalothin” value [33] was “substantially greater than that obtained for cephalothin”. For the same compound, the “substrate for the lactamase” value [33] was “found to be substrates for the E. coli TEM beta-lactamase” and the “binding to the lactamase (KM approximating KS)” value [33] was “do not compromise the binding of the cephalosporin nucleus to the lactamase”.

`N[C@@H](CCl)C(=O)N[C@@H](CCl)C(=O)OCC1=C(C(=O)O)N2C(=O)[C@@H](NC(=O)Cc3cccs3)[C@H]2SC1` [(e), 7-beta-(2-thienylacetamido)-3-(beta-chloro-L-alanyl-beta-chloro-L-alanyloxymethyl)-3-cephem-4-carboxylate] gave an MIC [1] of 200 µM (≈ 113 µg/mL), an MIC [2] of 12.5 µM (≈ 7.07 µg/mL) and an MIC ([3]; Escherichia coli) of 12.5 µM (≈ 7.07 µg/mL). The MIC [4] was 6.25 µM (≈ 3.53 µg/mL), the MIC ([5]; Escherichia coli) was 12.5 µM (≈ 7.07 µg/mL) and the MIC [6] was 25 µM (≈ 14.1 µg/mL). For the same compound, the MIC [7] was no more than 0.78 µM, the MIC [8] was 3.12 µM (≈ 1.76 µg/mL) and the MIC [9] was greater than 200 µM. The MIC [10] was 50 µM (≈ 28.3 µg/mL), the MIC [11] was greater than 200 µM and the MIC [12] was 25 µM (≈ 14.1 µg/mL). The MIC [13] was 50 µM (≈ 28.3 µg/mL), the MIC [14] was greater than 200 µM and the MIC [15] was 50 µM (≈ 28.3 µg/mL). The MIC [16] was no more than 0.78 µM, the MIC [17] was no more than 0.78 µM and the MIC [18] was 1.56 µM (≈ 0.882 µg/mL). The MIC [19] was 1.56 µM (≈ 0.882 µg/mL), the MIC [20] was 1.56 µM (≈ 0.882 µg/mL) and the MIC [21] was no more than 0.78 µM. The MIC [22] was no more than 0.78 µM, the MIC [23] was 12.5 µM (≈ 7.07 µg/mL) and the MIC [24] was 50 µM (≈ 28.3 µg/mL). It also gave an MIC [25] of 6.25 µM (≈ 3.53 µg/mL), an MIC [26, 34] of 3.12 µM (≈ 1.76 µg/mL) and an MIC [27, 35] of 3.12 µM (≈ 1.76 µg/mL). The MIC [28] was 12.5 µM (≈ 7.07 µg/mL), the MIC [29] was no more than 0.78 µM and the MIC [30] was no more than 0.78 µM. The MIC [31] was no more than 0.78 µM, the “detectable activity among the cephalosporins” value ([32]; E. cloacae, all of the susceptible E. coli strains, Corynebacterium strains, S. faecalis) was “the only cephalosporin with detectable activity” and the sensitivity observed [32, 36] was “sensitivity was observed”. For the same compound, the insensitivity / resistance ([32]; P. aeruginosa, S. marcescens and K. pneumoniae) was “resistant”, the sensitivity ([32]; S. aureus strains, Corynebacterium JK strains, S. faecalis, H. influenzae 487, E. coli JSR-O and E. cloacae) was “sensitive” and the “antimicrobial potency compared with the other cephalosporins” value ([32]; Table I, all strains) was “by-and-large a more potent antimicrobial agent than the other three cephalosporins (b), (c) and (d)”. For the same compound, the “antibiotic potency of (e) versus amino acid ester (c)” value ([32]; strains sensitive to both (c) and (e)) was “invariably more potent an antibiotic than is the amino acid ester (c)”, the “Vmax compared with cephalothin” value [33] was “substantially greater than that obtained for cephalothin” and the “substrate for the lactamase” value [33] was “found to be substrates for the E. coli TEM beta-lactamase”. The “binding to the lactamase (KM approximating KS)” value [33] was “do not compromise the binding of the cephalosporin nucleus to the lactamase”.

In the case of `CC(=O)OCC1=C(C(=O)O)N2C(=O)[C@@H](NC(=O)Cc3cccs3)[C@H]2SC1` [cephalothin, reference compound], the MIC ([26]; Corynebacterium, JKM4754, read-out: Minimum Inhibitory Concentration) is reported as greater than 200 µM, the MIC ([27]; Corynebacterium, JKR2285, read-out: Minimum Inhibitory Concentration) is reported as greater than 200 µM and the MIC [28] is reported as greater than 200 µM.

From patent US4783443A, “Amino acyl cephalosporin derivatives” (The University of Chicago, priority 1986, dated 1988)
